Source: EP4563579A1, “MACROCYCLIC EGFR INHIBITOR, AND PREPARATION METHOD THEREFOR AND PHARMACEUTICAL USE THEREOF” (Abbisko Therapeutics Co., Ltd., priority 2022, dated 2024)

Key:
[1] = test system: Ba/F3 EGFR-DEL19-T790M-C797S (DTC); experiment: Cell proliferation assay (CellTiter-Glo), Ba/F3 DTC; format: cell-based; settings: Ba/F3 EGFR-DEL19-T790M-C797S cells, 72 hour incubation, CTG readout; read-out: IC50 BaF3 DTC
Method: (§1) • DMEM Medium (Gibco, Cat#11965118) • RPMI1640 Medium (Gibco, Cat#11875119) • Fetal Bovine Serum (FBS) (GBICO, Cat#10099-141) • CellTiter-Glo® Luminescent Cell Viability Assay Kit (Promega, Cat#G7572) 96-well, Black, Clear Flat Bottom Plate (Corning®, Cat# 3603)
(§2) • SpectraMax Multimode Microplate Reader MD, 2104-0010A; • CO2 Incubator, Thermo Scientific 3100 Series; • Biosafety Cabinet, Thermo Scientific, 1300 Series A2; • Inverted Microscope, Olympus, CKX41SF; • Siemens Refrigerator, KK25E76TI.
(§3) • 1. Cell Culture and Inoculation: • (1) Harvest cells in a logarithmic growth phase and count the cells using a […]. Test cell viability using a trypan blue exclusion method to ensure that cell viability is above 90%. • (2) Adjust the cell concentration to desired final density; and add 90 µL of cell suspension to a 96-well plate. • (3) Incubate the cells overnight at 37°C, under 5% CO2 and 95% humidity in the 96-well plate. • 2. T0 Reference Data: • (1) Add 10 µL PBS to each well of the T0 plate containing cells. • (2) Thaw the CTG reagent and equilibrate the plate to room temperature for 30 minutes. • (3) Add an equal volume of CTG solution to each well. • (4) Lyse cells by shaking on an orbital shaker for 5 minutes. • (5) Leave the plate at room temperature for 20 minutes to stabilize the luminescence signal. • (6) Read the T0 […]. • 3. Compound Dilution and Addition • (1) Add a corresponding volume of DMSO to a corresponding compound powder according to the compound information sheet to prepare a 10 mM stock solution. • (2) Prepare 1000-fold and 3.16-fold diluted compound solutions. • (3) Dilute the 1000× diluted compound solution 100-fold with PBS to prepare a 10-fold compound solution, with a maximum concentration of 10 µM, nine concentrations and 3.16-fold dilution. Then add 10 µL of the drug solution concentration to individual wells of the 96-well plate seeded with cells. Test each compound concentration in triplicate wells, and the final DMSO concentration is 0.1%. • (4) Incubate the cells in the 96-well plate containing the drug compounds at 37°C, under 5% CO2, and 95% humidity for an additional 72 hour period prior to performing the CTG analysis. • 4. Fluorescence Signal Reading • (1) Thaw the CTG reagent and equilibrate the plate to room temperature for 30 minutes. • (2) Add an equal volume of CTG solution to each well. • (3) Lyse cells by shaking on an orbital shaker for 5 minutes. • (4) Leave the plate at room temperature for 20 minutes to stabilize the […]. • (5) Read fluorescence value. • 5. Data Processing
(§4) Analyze the data by using GraphPad Prism 7.0 software, and use Non-linear S-curve regression to fit the dose-response curves, to calculate the IC50 values (in nM). The specific experiment results are presented in Table 1: [formula] Table 1: Biology Test Results

[2] = test system: Ba/F3 EGFR-L858R-C797S (LC); experiment: Cell proliferation assay (CellTiter-Glo), Ba/F3 LC; format: cell-based; settings: Mus musculus, BaF3; Ba/F3 EGFR-L858R-C797S cells, 72 hour incubation, CTG readout
Method: as §1, §2, §3, §4

[3] = test system: Ba/F3 EGFR-DEL19-C797S (DC); experiment: Cell proliferation assay (CellTiter-Glo), Ba/F3 DC; format: cell-based; settings: Mus musculus, BaF3; Ba/F3 EGFR-DEL19-C797S cells, 72 hour incubation, CTG readout
Method: as §1, §2, §3, §4

A431 WT = experiment: Cell proliferation assay (CellTiter-Glo), A431 WT; format: cell-based; settings: Homo sapiens, A-431; A431 WT cells, 72 hour incubation, CTG readout
Method: as §1, §2, §3, §4

[4] = test system: Ba/F3 EGFR-L858R-T790M-C797S (LTC); experiment: Cell proliferation assay (CellTiter-Glo), Ba/F3 LTC; format: cell-based; settings: Mus musculus, BaF3; Ba/F3 EGFR-L858R-T790M-C797S cells, 72 hour incubation, CTG readout
Method: as §1, §2, §3, §4

[5] = Pharmacokinetic experiment in mice; format: in vivo; settings: male, mouse; ICR mice, single oral administration (PO), 10 mg/kg, plasma
Source text: The purpose of this trial is to study the pharmacokinetic behavior of some compounds of the present invention, and the administration method is: Single oral administration (PO) to ICR mice.
The compounds used in this trial are from the compounds in the specific examples of the present invention and the listed positive compounds.
ICR mice male N=9 original source: Shanghai Sippr-Bk Lab Animal Co., Ltd.
The compounds are weighed and dissolved in the corresponding solution (10% PG + 10% Solutol® + 80% pH3 citrate buffer). The mixture is then shaken well and sonicated to prepare a 1 mg/mL stock solution. Nine mice are orally administered at a dose of 10 mg/kg (or IV 2 mg/kg) after an overnight fast.
About 90 µL of blood is collected via the submandibular vein per time point, heparin sodium anticoagulant is added, the sample is placed on ice after collection, and plasma is centrifuged within 1 hour (centrifugation conditions: 8,000 rpm, 6 minutes, 2-8°C). The blood collection timepoints are 0, 0.25, 0.5, 1, 2, 4, 6, 8 and 24 h. The samples are stored in a -20°C refrigerator.
The plasma sample is 40 µL, 160 µL of ice-cold acetonitrile containing internal standard is added, vortexed for 3 minutes, and centrifuged at 11,000 rpm for 5 minutes. 100 µL of the supernatant is taken and added to 100 µL of water, 5 µL of the sample is taken and injected into LC/MS/MS for analysis.

**Q.** For CN1CCC(F)(C#Cc2nn3c4cc(ncc24)Nc2ccnc(n2)-c2cnn(C)c2OCC2(CCCC2)C3)CC1 [Example 9, 3'-((4-fluoro-1-methylpiperidin-4-yl)ethynyl)-1'-methyls piro(cyclopentane-1,6'-8-oxa-3-aza-4(6,1)-pyrazolo[4,3-c]pyridina-2(2,4)-pyrimidina-1(4,5)-pyrazolacyclooctaphane)], which IC50 [1] is on record?
**A.** 18.4 nM

**Q.** What about the IC50 [2] of the same compound?
**A.** 62.7 nM

**Q.** And the IC50 [3]?
**A.** 32.8 nM

**Q.** And the IC50 (A431 WT)?
**A.** 1920 nM

**Q.** What about the IC50 [4] of the same compound?
**A.** 47 nM

**Q.** Which results are given for CN1CCC(F)(C#Cc2nn3c4cc(ncc24)Nc2ccnc(n2)-c2cnn(C)c2OCC2(CCOCC2)C3)CC1 [Example 11, 3'-((4-fluoro-1-methylpiperidin-4-yl)ethynyl)-1'-methyl-2,3,5,6-tetrahydrospiro(pyran-4,6'-8-oxa-3-aza-4(6,1)-pyrazolo[4,3-c]pyridina-2(2,4)-pyrimidina-1(4,5)-pyrazolacyclooctaphane)]?
**A.** IC50 [1]: 92.2 nM; IC50 [2]: 187 nM; IC50 [3]: 128 nM; IC50 (A431 WT): 807 nM; IC50 [4]: 133 nM

**Q.** Which results are given for Cn1ncc2c1OCC1(CCCC1)Cn1nc(N3CC[C@@H](NS(C)(=O)=O)C3)c3cnc(cc31)Nc1ccnc-2n1 [Example 48, (R)-N-(1-(1'-methylspiro(cyclopentane-1,6'-8-oxa-3-aza-4(6,1)-pyrazolo[4,3-c]pyridina-2(2,4)-pyrimidina-1(4,5)-pyrazolacyclooctaphane)-3'-yl)pyrrolidin-3-yl)metha nesulfonamide]?
**A.** IC50 [1]: 2 nM; IC50 [2]: 7.6 nM; IC50 [3]: 2.5 nM; IC50 (A431 WT): 357 nM; IC50 [4]: 4.5 nM

**Q.** For Cn1ncc2c1OCC1(CCCC1)Cn1nc(N3CC[C@H](CS(=O)(=O)C4CCC4)C3)c3cnc(cc31)Nc1ccnc-2n1 [Example 44, (S)-3'-(3-((cyclobutylsulfonyl)methyl)pyrrolidin-1-yl)-1 '-methylspiro(cyclopentane-1,6'-8-oxa-3-aza-4(6,1)-pyrazolo[4,3-c]pyridina-2(2,4)-pyrimidina-1(4,5)-pyrazolacyclooctaphane)], which IC50 [1] is on record?
**A.** 4 nM

**Q.** What about the IC50 [2] of the same compound?
**A.** 5.3 nM

**Q.** What about the IC50 [3] of the same compound?
**A.** 10.1 nM

**Q.** What about the IC50 (A431 WT) of the same compound?
**A.** 1130 nM

**Q.** What about the IC50 [4] of the same compound?
**A.** 1.9 nM

**Q.** For Cn1ncc2c1OCC1(CCCC1)Cn1nc(N3CC(CS(C)(=O)=O)C3)c3cnc(cc31)Nc1ccnc-2n1 [Example 26, 1'-methyl-3'-(3-((methylsulfonyl)methyl)azetidin-1-yl)s piro(cyclopentane-1,6'-8-oxa-3-aza-4(6,1)-pyrazolo[4,3-c]pyridina-2(2,4)-pyrimidina-1(4,5)-pyrazolacyclooctaphane)], which IC50 [1] is on record?
**A.** 16.3 nM

**Q.** And the IC50 [2]?
**A.** 33.5 nM

**Q.** And the IC50 [3]?
**A.** 11.4 nM

**Q.** What about the IC50 (A431 WT) of the same compound?
**A.** 645 nM

**Q.** What about the IC50 [4] of the same compound?
**A.** 28.5 nM

**Q.** With Cn1ncc2c1OCC1(CCC1)Cn1nc(N3CC(CS(C)(=O)=O)C3)c3cnc(cc31)Nc1ccnc-2n1 [Example 25, 1'-methyl-3'-(3-((methylsulfonyl)methyl)azetidin-1-yl)s piro(cyclobutane-1,6'-8-oxa-3-aza-4(6,1)-pyrazolo[4,3-c]pyridina-2(2,4)-pyrimidina-1(4,5)-pyrazolacyclooctaphane)] as the compound, how does the IC50 [1] read?
**A.** 42.6 nM

**Q.** What about the IC50 [2] of the same compound?
**A.** 123 nM

**Q.** What about the IC50 [3] of the same compound?
**A.** 66.5 nM

**Q.** What about the IC50 (A431 WT) of the same compound?
**A.** 571 nM

**Q.** And the IC50 [4]?
**A.** 106 nM

**Q.** Which IC50 [1] does the source give for CCS(=O)(=O)N[C@H]1CCN(c2nn3c4cc(ncc24)Nc2ccnc(n2)-c2cnn(C)c2OCC2(CCCC2)C3)C1 [Example 57] here?
**A.** 3.1 nM

**Q.** What about the IC50 [2] of the same compound?
**A.** 22.8 nM

**Q.** And the IC50 [3]?
**A.** 5.3 nM

**Q.** And the IC50 (A431 WT)?
**A.** 251 nM

**Q.** What about the IC50 [4] of the same compound?
**A.** 7.9 nM

**Q.** Which results are given for COC(=O)N[C@H]1CCN(c2nn3c4cc(ncc24)Nc2ccnc(n2)-c2cnn(C)c2OCC2(CCCC2)C3)C1 [Example 55, Methyl (S)-(1-(1'-methylspiro(cyclopentane-1,6'-8-oxa-3-aza-4(6,1)-pyrazolo[4,3-c]pyridina-2(2,4)-pyrimidina-1(4,5)-pyrazolacyclooctaphane)-3'-yl)pyrrolidin-3-yl)carbamate]?
**A.** IC50 [1]: 8.5 nM; IC50 [2]: 33.1 nM; IC50 [3]: 12.1 nM; IC50 (A431 WT): 329 nM; IC50 [4]: 12 nM

**Q.** With CN1CCC(C#Cc2nn3c4cc(ncc24)Nc2ccnc(n2)-c2cnn(C)c2OCC2(CCOCC2)C3)CC1 [Example 4, 1'-methyl-3'-((1-methylpiperidin-4-yl)ethynyl)-2,3,5,6-te trahydrospiro(pyran-4,6'-8-oxa-3-aza-4(6,1)-pyrazolo[4,3-c]pyridina-2(2,4)-pyrimidina-1(4,5)-pyrazolacyclooctaphane)] as the compound, how does the IC50 [1] read?
**A.** 15.6 nM

**Q.** And the IC50 [2]?
**A.** 50.3 nM

**Q.** And the IC50 [3]?
**A.** 26.8 nM

**Q.** What about the IC50 (A431 WT) of the same compound?
**A.** 822 nM

**Q.** And the IC50 [4]?
**A.** 12.4 nM

**Q.** Which IC50 [1] does the source give for Cn1ncc2c1OCC1(CCCC1)Cn1nc(N3CC[C@@H](NS(=O)(=O)C4CC4)C3)c3cnc(cc31)Nc1ccnc-2n1 [Example 58, (R)-N-(1-(1'-methylspiro(cyclopentane-1,6'-8-oxa-3-aza-4(6,1)-pyrazolo[4,3-c]pyridina-2(2,4)-pyrimidina-1(4,5) -pyrazolacyclooctaphane)-3' -yl)pyrrolidin-3-yl)cyclopro panesulfonamide] here?
**A.** 2.8 nM

**Q.** And the IC50 [2]?
**A.** 6.9 nM

**Q.** What about the IC50 [3] of the same compound?
**A.** 7.2 nM

**Q.** And the IC50 (A431 WT)?
**A.** 911 nM

**Q.** And the IC50 [4]?
**A.** 2.1 nM

**Q.** With Cn1ncc2c1OCC1(CCCC1)Cn1nc(N3CC[C@H](CS(=O)(=O)C4CC4)C3)c3cnc(cc31)Nc1ccnc-2n1 [Example 40, (S)-3'-(3-((cyclopropylsulfonyl)methyl)pyrrolidin-1-yl)-1'-methylspiro(cyclopentane-1,6'-8-oxa-3-aza-4(6,1)-pyrazolo[4,3-c]pyridina-2(2, 4)-pyrimidina-1(4,5)-pyrazolacyclooctaphane)] as the compound, how does the AUC(0-t) [5] read?
**A.** 4940 ng·h/mL

**Q.** What about the Cmax [5] of the same compound?
**A.** 1350 ng/mL

**Q.** And the half-life [5]?
**A.** 3.5 h

**Q.** What about the IC50 [2] of the same compound?
**A.** 2.1 nM

**Q.** And the IC50 (A431 WT)?
**A.** 320 nM

**Q.** What about the IC50 [4] of the same compound?
**A.** 0.7 nM

**Q.** What does the source list for CCN1CCC(C#Cc2nn3c4cc(ncc24)Nc2ccnc(n2)-c2cnn(C)c2OCC2(CCCC2)C3)CC1 [Example 7, 3'-((1-ethylpiperidin-4-yl)ethynyl)-1'-methylspiro(cyclopentane-1,6'-8-oxa-3-aza-4(6,1)-pyrazolo[4,3-c]pyridina-2(2,4)-pyrimidina-1(4,5)-pyrazolacyclooctaphane)]?
**A.** AUC(0-t) [5]: 2520 ng·h/mL; Cmax [5]: 193 ng/mL; half-life [5]: 5.6 h; IC50 [2]: 43.5 nM; IC50 (A431 WT): 1660 nM; IC50 [4]: 24.6 nM

**Q.** What does the source list for Cn1ncc2c1OCC1(CCCC1)Cn1nc(N3CC[C@@](C)(O)C3)c3cnc(cc31)Nc1ccnc-2n1 [Example 24, (R)-3-methyl-1-(1'-methylspiro(cyclopentane-1,6'-8-oxa-3-aza-4(6,1)-pyrazolo[4,3-c]pyridina-2(2,4)-pyrimidina-1(4,5)-pyrazolacyclooctaphane)-3'-yl)pyrrolidin-3-ol]?
**A.** IC50 [1]: 0.7 nM; IC50 [3]: 4.4 nM; IC50 (A431 WT): 378 nM; IC50 [4]: 6.1 nM
